Ends that are not written are not given here.
How the values were obtained:
human endothelin 1 [1] = experiment: Enzymeimmuno competitive inhibition assay of endothelin 1 binding to peptide resin; settings: 3 hours at room temperature
Method: After blocking those sites susceptible to nonspecific adsorption on the peptide resin obtained in (2) above with 0.2% skim milk solution, the peptide resin was immersed in 200 µl of human endothelin 1 solution (0.2 µg/ml) (prepared by dissolving in Dalbecco's phosphate buffered biological saline containing 0.1% skim milk and 0.1 % Tween 20). After allowing to react for 3 hours at room temperature while stirring gently, the resulting solution was used as sample solution (i).
Separate from the above, the wells of an ELISA microplate were coated overnight at 4°C with 200 µl of human endothelin 1 solution (1 wg/ml). […]
After washing the human endothelin 1 coated plate (ii) with washing buffer (Dalbecco's phosphate buffered biological saline containing 0.1% Tween), 50 µl of sample solution (i) was added followed immediately by the addition of 200 µl of anti-human endothelin 1 rabbit antibody solution (using Dalbecco's phosphate buffered biological saline containing 0.1% skim milk and 0.1% Tween as the dilution buffer). […] After similarly washing the plate and adding 200 µl of substrate solution (1 mg p-nitrophenyl phosphate/ml 1M diethanolamine buffer), the amount of p-nitrophenol released by the labelled enzyme present on the plate was determined by measuring the absorbance at 405 nm. […]

human endothelin 1 [2] = experiment: Binding activity of radioactive ligand (125I-human endothelin 1) to peptide resin; settings: 125I-human endothelin 1 solution 0.131 ng/ml, 2 hours at room temperature, gamma counter
Method: After blocking the sites susceptible to adsorption on the peptide resin obtained in (2) above with 0.2% skim milk solution, the peptide was suspended in 100 ml of ^1251-human endothelin 1 (specific activity: 74 TBq- /mmol) solution (0.131 ng/ml) (prepared by dissolving in Dalbecco's phosphate buffered biological saline containing 0.1 % skim milk and 0.1 % Tween) and allowed to react for 2 hours at room temperature. Following the binding reaction, the peptide resin was thoroughly washed with washing buffer (Dalbecco's phosphate buffered biological saline containing 0.1 % Tween), and the radioactivity bound to the peptide resin was measured with a gamma counter.

inhibitory activity (human endothelin 1 [1]; decrease of endothelin 1 antigen activity after binding to peptide resin pins, 0.2 µg/ml): 21.1% | antigen activity of human endothelin 1 in said sample solution (i) (human endothelin 1 [1]; remaining relative to before the binding reaction to the peptide resin pins, endothelin 1 solution 0.2 µg/ml, 200 µl): 78.9% | amount of human endothelin 1 bound to the peptide resin (human endothelin 1 [2]): 5.18 pg
Substance: KRGFPP

Reference: patent EP0535804A1, “Peptide compounds” (HITACHI CHEMICAL CO., LTD., priority 1991, dated 1993)
